# ChEMBL document CHEMBL1201862, “PubChem BioAssay data set” (2004)
# Activity calls are given as the source filed them. Rule as the data show it, for most assays here: actives have a measured EC50 and inactives only a lower limit.
# Experiments:
# [1] = target: T1, Corticotropin-releasing factor receptor 2/Corticotropin-releasing factor-binding protein (Homo sapiens, UniProt P24387+Q13324); assay: Dose Response confirmation of uHTS hits for small molecule antagonists of the CRF-binding protein and CRF-R2 receptor complex.; format: functional; conditions: read-out: IC50_Mean
# T1 sequence (Q13324 whole entry): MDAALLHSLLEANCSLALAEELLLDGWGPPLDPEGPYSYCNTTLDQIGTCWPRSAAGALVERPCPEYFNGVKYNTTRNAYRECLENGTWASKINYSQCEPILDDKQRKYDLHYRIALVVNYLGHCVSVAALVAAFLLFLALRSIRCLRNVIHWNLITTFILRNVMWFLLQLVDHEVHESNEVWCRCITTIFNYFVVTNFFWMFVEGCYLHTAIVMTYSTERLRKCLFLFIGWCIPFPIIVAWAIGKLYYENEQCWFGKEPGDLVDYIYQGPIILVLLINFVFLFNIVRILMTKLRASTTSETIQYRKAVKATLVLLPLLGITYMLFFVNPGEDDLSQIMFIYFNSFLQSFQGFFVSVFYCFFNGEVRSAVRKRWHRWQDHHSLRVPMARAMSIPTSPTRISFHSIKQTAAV
# T1 sequence (P24387 whole entry): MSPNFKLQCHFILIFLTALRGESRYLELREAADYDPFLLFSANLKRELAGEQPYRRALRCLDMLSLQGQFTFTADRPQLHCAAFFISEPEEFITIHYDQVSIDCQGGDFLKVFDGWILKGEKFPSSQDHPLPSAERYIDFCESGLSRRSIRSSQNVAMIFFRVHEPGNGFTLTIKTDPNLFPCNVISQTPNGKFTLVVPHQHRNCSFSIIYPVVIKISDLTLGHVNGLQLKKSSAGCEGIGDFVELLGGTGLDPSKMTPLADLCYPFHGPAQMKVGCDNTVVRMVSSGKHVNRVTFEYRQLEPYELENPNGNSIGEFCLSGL
# [2] = target: T1, Corticotropin-releasing factor receptor 2/Corticotropin-releasing factor-binding protein; assay: activators of CRF receptor 2 with binding protein – uHTS hits, confirmation (AID 602473); format: functional; conditions: read-out: EC50_Mean
# [3] = NIH-3T3 fibroblast cytotoxicity, dose response, cytotoxicity control, cell-based, fluorescence, Alamar Blue, secondary assay (AID 2327); format: functional;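 also: NIH-3T3 mouse fibroblasts cultured with fluconazole at 8 µg/mL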
# [4] = C. albicans growth with fluconazole, confirmation, fluorescence, retest (AID 2467); format: functional, cell-based
# [5] = inhibitors of firefly luciferase expression or activity, dose response, H4 neuroglioma cells, luminescence (AID 1990); format: functional, cell-based
# [6] = Luminescence Cell-Based Dose Response HTS to Identify Inhibitors of 5'UTR Stem-Loop Driven Prion Protein mRNA Translation in H4 Neuroglioblastoma Cells. [Related pubchem assays: 1827 (Project Summary), 1813 (Primary HTS)]; format: functional
# [7] = inhibitors of SNCA 5'UTR-driven reporter translation, confirmation, H4 neuroglioma cells, luminescence (AID 1988); format: functional, cell-based
# [8] = HEp-2 cell cytotoxicity, dose response, cytotoxicity control for RSV inhibitor project, HTS (AID 2410); format: functional; conditions: human respiratory syncytial virus
# [9] = tested on: Streptococcus sp. 'group A'; assay: growth inhibition of control SK(-) GAS strain, dose response, counter-screen for streptokinase expression inhibitor project, luminescence, kanamycin, BacTiterGlo, confirmation (AID 1900); format: functional, organism-based
# [10] = tested on: Streptococcus; assay: Group A Streptococcus viability loss, dose response, counter-screen for streptokinase expression inhibitor project, luminescence, BacTiterGlo (AID 1915); format: functional, organism-based;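 also: potency for reduction of bacterial viability or growth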
# [11] = target: T2, Rac GTPase-activating protein 1 (Homo sapiens, UniProt Q9H0H5); assay: MgcRacGAP GTPase-activating activity inhibitors, confirmation, biochemical, ADP Hunter fluorescence, primary and confirmatory (AID 624330); format: functional
# T2 sequence (Q9H0H5 whole entry): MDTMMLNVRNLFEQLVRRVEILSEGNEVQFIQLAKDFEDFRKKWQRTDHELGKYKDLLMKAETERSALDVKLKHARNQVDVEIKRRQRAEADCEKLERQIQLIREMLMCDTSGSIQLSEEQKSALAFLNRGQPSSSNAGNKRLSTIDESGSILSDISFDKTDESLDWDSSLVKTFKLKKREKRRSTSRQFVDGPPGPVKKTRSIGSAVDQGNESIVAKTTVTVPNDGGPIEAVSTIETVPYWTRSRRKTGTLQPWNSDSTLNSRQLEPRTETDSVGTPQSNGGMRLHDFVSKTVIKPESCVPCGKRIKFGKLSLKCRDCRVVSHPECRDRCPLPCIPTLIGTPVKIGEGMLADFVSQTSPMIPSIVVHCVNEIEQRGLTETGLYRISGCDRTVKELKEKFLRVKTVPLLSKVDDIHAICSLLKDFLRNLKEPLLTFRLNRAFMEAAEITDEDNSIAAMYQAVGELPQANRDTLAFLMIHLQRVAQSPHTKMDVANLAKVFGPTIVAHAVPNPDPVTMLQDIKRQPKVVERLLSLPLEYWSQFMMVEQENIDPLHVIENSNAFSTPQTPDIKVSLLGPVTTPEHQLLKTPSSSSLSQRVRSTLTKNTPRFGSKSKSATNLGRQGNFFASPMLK
# [12] = Luminescence Cell-Based Dose Response HTS to Identify Activators of Luciferase Translation or Activity in H4 […] Cells. [Related pubchem assays: 1829 (Project Summary), 1814 (Primary HTS)]; format: functional
# [13] = tested on: H4; assay: Luminescence Cell-Based Dose Response HTS to Identify Activators of 5'UTR Stem-Loop Driven Prion Protein mRNA Translation in H4 Neuroglioblastoma Cells. [Related pubchem assays: 1829 (Project Summary), 1814 (Primary HTS)]; format: functional; conditions: Homo sapiens
# [14] = inhibitors of intracellular T. cruzi replication, confirmation, NIH3T3 host cells, beta-gal luminescence (AID 2044); format: functional, cell-based;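 also: intracellular parasites grown in NIH/3T3 mouse fibroblasts as host cells; luminescent beta-galactosidase reporter signal from transgenic T. cruzi replicating inside host cells; inhibitors lower the luminescence signal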
# [15] = cytotoxicity toward NIH3T3 fibroblasts, dose response, counter-screen, cell-based, ATP luminescence, mouse fibroblasts (AID 2010); format: functional;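 also: cells exposed to compound for about 90 hours before reading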
# [16] = tested on: INS1; assay: beta cell apoptosis inhibitors, cytokine rescue, dose response, luminescence, retest (AID 449756); format: functional, cell-based; conditions: Rattus norvegicus;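 also: cell death triggered by IL-1 beta plus TNF-alpha plus IFN-gamma mixture; protective hits raise ATP signal compared with cytokine alone wells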
# [17] = target: Cytochrome P450 2D6 (Homo sapiens, UniProt P10635);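 also: CYP2D6 member of a cytochrome P450 panel assay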
# Cytochrome P450 2D6, sequence (P10635 whole entry): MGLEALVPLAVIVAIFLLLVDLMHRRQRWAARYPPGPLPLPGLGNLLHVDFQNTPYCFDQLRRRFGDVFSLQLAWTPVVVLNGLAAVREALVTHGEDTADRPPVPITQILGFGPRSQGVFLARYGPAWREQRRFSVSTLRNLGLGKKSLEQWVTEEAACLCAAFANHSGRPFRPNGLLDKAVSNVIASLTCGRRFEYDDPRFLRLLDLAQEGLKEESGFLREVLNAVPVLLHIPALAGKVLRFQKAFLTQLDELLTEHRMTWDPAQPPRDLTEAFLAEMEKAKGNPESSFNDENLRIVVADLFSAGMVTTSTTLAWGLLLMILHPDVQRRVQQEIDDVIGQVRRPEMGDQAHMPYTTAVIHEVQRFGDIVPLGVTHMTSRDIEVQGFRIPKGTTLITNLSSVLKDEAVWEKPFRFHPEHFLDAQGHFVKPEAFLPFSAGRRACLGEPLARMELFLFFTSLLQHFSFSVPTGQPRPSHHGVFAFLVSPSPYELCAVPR
# [18] = target: T3, Cytochrome P450 1A2 (Homo sapiens, UniProt P05177);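 also: PubChem cytochrome P450 panel assay, CYP1A2 panel member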
# T3 sequence (P05177 whole entry): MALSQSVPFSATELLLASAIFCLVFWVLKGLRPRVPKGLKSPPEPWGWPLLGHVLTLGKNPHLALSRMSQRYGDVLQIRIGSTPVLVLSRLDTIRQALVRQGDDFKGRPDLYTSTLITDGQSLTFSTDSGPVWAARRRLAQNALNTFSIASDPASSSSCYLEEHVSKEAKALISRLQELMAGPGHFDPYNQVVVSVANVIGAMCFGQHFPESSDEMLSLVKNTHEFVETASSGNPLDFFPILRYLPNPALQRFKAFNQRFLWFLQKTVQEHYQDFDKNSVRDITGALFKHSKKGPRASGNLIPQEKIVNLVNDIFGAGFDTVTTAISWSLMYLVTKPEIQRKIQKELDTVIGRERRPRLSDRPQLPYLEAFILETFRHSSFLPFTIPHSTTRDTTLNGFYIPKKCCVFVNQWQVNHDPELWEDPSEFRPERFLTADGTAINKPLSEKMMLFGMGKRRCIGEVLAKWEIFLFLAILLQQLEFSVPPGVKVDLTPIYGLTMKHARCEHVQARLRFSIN
# [19] = target: Cytochrome P450 3A4 (Homo sapiens, UniProt P08684);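 also: CYP3A4 tested as one member of a cytochrome P450 panel screen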
# Cytochrome P450 3A4, sequence (P08684 whole entry): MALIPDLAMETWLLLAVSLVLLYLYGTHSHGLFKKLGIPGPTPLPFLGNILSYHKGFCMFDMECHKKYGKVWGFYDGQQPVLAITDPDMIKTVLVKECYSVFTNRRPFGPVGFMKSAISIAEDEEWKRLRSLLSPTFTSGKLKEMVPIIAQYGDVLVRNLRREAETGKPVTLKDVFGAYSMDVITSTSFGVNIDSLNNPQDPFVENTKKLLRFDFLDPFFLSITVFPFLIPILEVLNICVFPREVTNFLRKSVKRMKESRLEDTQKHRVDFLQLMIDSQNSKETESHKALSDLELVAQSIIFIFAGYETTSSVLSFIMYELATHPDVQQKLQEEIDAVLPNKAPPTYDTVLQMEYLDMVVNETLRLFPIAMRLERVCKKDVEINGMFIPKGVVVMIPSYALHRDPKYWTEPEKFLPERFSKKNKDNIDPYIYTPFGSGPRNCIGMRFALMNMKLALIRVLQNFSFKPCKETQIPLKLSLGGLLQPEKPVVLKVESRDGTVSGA
compound,measurement,setting,value
O=C(NCC1CCCO1)C1CCCN1C(=O)NC1CCCCC1 (stereo unspecified),IC50,[1],> 47.1 µM (inactive)
same,EC50,[2],> 53 µM (inactive)
O=C(Cc1ccc(O)cc1)N/N=C/c1cccnc1,EC50,[3],> 160 µM (inactive)
same,EC50,[4],> 38 µM (not active)
Cc1ccc2c(c1)cc1c(=O)n(CC(=O)NCc3ccccn3)nc(C)n12,EC50,[5],> 120 µM (not active)
same,EC50,[6],> 120 µM (not active)
same,EC50,[7],> 120 µM (not active)
CCc1cccc(NC(=S)N(CCCN2CCOCC2)C(C)c2cc3cccc(OC)c3o2)c1 (stereo unspecified),IC50,[1],> 47.1 µM (inactive)
same,EC50,[2],> 53 µM (inactive)
COCC(C)n1c(SCc2cc(=O)n3cc(C)ccc3n2)nc2ccccc2c1=O (stereo unspecified),CC50,[8],49.5 µM (active)
same,EC50,[5],> 120 µM (not active)
same,EC50,[6],12.6 µM (active)
same,EC50,[7],> 120 µM (not active)
CCc1ccc2[nH]c(C(=O)Nc3ccc4c(c3)OCO4)cc2c1,IC50,[1],> 47.1 µM (inactive)
same,EC50,[2],> 53 µM (inactive)
COc1ccc(C(=O)NC(=S)NNC(=O)c2ccccc2O)cc1,EC50,[9],2.7 µM (active)
same,EC50,[10],8.79 µM (active)
same,EC50,[2],> 53 µM (inactive)
Sc1nnc(-c2cccs2)n1/N=C/c1cccs1,EC50,[3],> 150 µM (inactive)
same,EC50,[4],1.93 µM (active)
same,IC50,[11],126 µM (active)
COc1ccc(C(=O)N(c2ccccc2)C2C=CS(=O)(=O)C2)cc1 (stereo unspecified),IC50,[1],> 47.1 µM (inactive)
same,EC50,[2],> 53 µM (inactive)
O=C1NCCCCC1NS(=O)(=O)c1cccc2ccccc12 (stereo unspecified),IC50,[1],> 47.1 µM (inactive)
same,EC50,[2],> 53 µM (inactive)
Nc1c2c(nc3sc4c(c13)CCCCC4)CCCCC2,EC50,[3],> 160 µM (inconclusive)
same,EC50,[4],3.83 µM (active)
Cc1cc(=O)n2c(c1C#N)SC1CCCCC12O (stereo unspecified),EC50,[5],> 120 µM (not active)
same,EC50,[6],> 120 µM (not active)
same,EC50,[7],> 120 µM (not active)
CCOc1ccccc1-n1c(C)nc2cc(C(=O)O)ccc21,IC50,[1],> 47.1 µM (inactive)
same,EC50,[2],> 53 µM (inactive)
Cc1cc(C)nc(NS(=O)(=O)c2ccc(NC(=O)COc3ccccc3)cc2)n1,EC50,[3],> 150 µM (inactive)
same,EC50,[4],> 38 µM (not active)
COc1cc(C(=O)NC2CC(C)(C)Cc3c2cnn3-c2ccccc2)cc(OC)c1OC (stereo unspecified),IC50,[1],> 47.1 µM (inactive)
same,EC50,[2],> 53 µM (inactive)
O=[N+]([O-])c1ccc(N2CCOCC2)cc1NCc1ccccc1,IC50,[1],> 47.1 µM (inactive)
same,EC50,[2],> 53 µM (inactive)
O=S(=O)(c1ccc(Cl)s1)N1CCCc2cccc(O)c21,EC50,[3],21.4 µM (active)
same,EC50,[12],6.05 µM (active)
same,EC50,[13],45.3 µM (active)
same,EC50,[4],> 38 µM (not active)
CCN(c1ccccc1)S(=O)(=O)c1ccc(C(=O)Nc2nnc(C3CC3)o2)cc1,EC50,[3],> 160 µM (inactive)
same,EC50,[4],2.19 µM (active)
same,EC50,[14],2.16 µM (active)
same,EC50,[15],3.71 µM (active)
COc1ccccc1N1CC(C)(C)C(=O)N(C(=O)c2ccc(Cl)cc2)C1=S,AC50,[16],> 260 µM (inactive)
O=C1C(C2=NC(c3ccccn3)C3C(=O)N(c4ccc(OC(F)(F)F)cc4)C(=O)C23)=C(O)c2ccccc21 (stereo unspecified),AC50,[16],5.71 µM (active)
COc1ccc(/C=C/C(=O)Nc2ccc(-n3nncc3-c3ccc(OC)c(OC)c3)cc2)cc1OC,EC50,[5],23.4 µM (active)
same,EC50,[6],> 120 µM (not active)
same,EC50,[7],16.5 µM (active)
CNS(=O)(=O)c1cccc(C(=O)NCC(c2ccco2)N(C)C)c1 (stereo unspecified),IC50,[1],> 47.1 µM (inactive)
same,EC50,[2],> 53 µM (inactive)
Cc1cc(C(=O)Nc2ccc(CC(=O)O)cc2)c(C)o1,EC50,[5],12.9 µM (active)
same,EC50,[6],23.1 µM (active)
same,EC50,[7],18.1 µM (active)
CCCCn1c2c(c(=O)n(C)c1=O)C(c1ccc(OC)cc1)N1CCCCCC1=N2 (stereo unspecified),EC50,[5],39.2 µM (active)
same,EC50,[6],> 120 µM (not active)
same,EC50,[7],> 120 µM (not active)
O=Nc1c(O)n(Cc2cccc(Cl)c2)c2ccccc12,EC50,[3],> 150 µM (inactive)
same,CC50,[8],11.7 µM (active)
same,EC50,[4],2.99 µM (active)
same,AC50,[17],22.4 µM (inconclusive)
same,AC50,[18],25.1 µM (inconclusive)
same,AC50,[19],39.8 µM (inconclusive)
O=C(Nc1nn[nH]n1)c1cccc([N+](=O)[O-])c1,EC50,[5],> 120 µM (not active)
same,EC50,[6],> 120 µM (not active)
same,EC50,[7],> 120 µM (not active)
CC(=O)Cc1nsc(Nc2ccc(Cl)cc2)n1,EC50,[3],> 160 µM (inactive)
same,EC50,[4],> 38 µM (not active)
O=C(NCCS(=O)(=O)c1ccc(Br)cc1)c1ccccc1Cl,IC50,[1],> 47.1 µM (inactive)
same,EC50,[2],> 53 µM (inactive)
Cc1ccc(/C=N/Nc2ccnc3cc(Cl)ccc23)c(C)c1,EC50,[14],0.672 µM (active)
same,EC50,[15],> 60 µM (not active)
same,AC50,[16],6.15 µM (active)
CCCC(=O)c1c(NC(C)C)cc(C)oc1=O,EC50,[5],> 120 µM (not active)
same,EC50,[6],> 120 µM (not active)
same,EC50,[7],> 120 µM (not active)
COc1ccc(CCC(=O)N2CC(C)OC(C)C2)cc1 (stereo unspecified),EC50,[3],> 150 µM (inactive)
same,EC50,[4],> 38 µM (not active)
O=C(COc1ccc(Cl)cc1Cl)NNC(=S)NC(=O)c1ccco1,EC50,[9],0.309 µM (active)
same,EC50,[10],1.57 µM (active)
Cc1ccc(-n2nc(C)c(Sc3ccccc3[N+](=O)[O-])c2N)cc1,IC50,[1],> 47.1 µM (inactive)
same,EC50,[2],> 53 µM (inactive)
COc1ccc2c(c1)c(/C=C/c1cc[n+](C)cc1)cn2C,EC50,[3],> 160 µM (inactive)
same,EC50,[4],2.23 µM (active)
